# Source: patent US20260206761A1, “HETEROARYL-TRIAZOLE COMPOUNDS AS PESTICIDES” (Bayer Aktiengesellschaft, priority 2019, published 2026)
# Columns and labels:
# Type in all cases: in vivo
# [1] = system: Rhipicephalus microplus larvae (strain Parkhurst, resistant against synthetic pyrethroids); assay: Rhipicephalus (Boophilus) microplus in-vitro contact test, larval cattle tick; conditions: after 48 hours, read-out: activity (efficacy: larvae dead or moribund); for pest or weed control at 100 g/ha: application rate 1 pg/cm^2 (=100 g/ha); for pest or weed control at 500 g/ha: application rate 5 pg/cm^2 (=500 g/ha)
# Outline: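 Larvae (20-50 per tube) exposed to dry compound film on glass tube walls, 5 μg/cm^2 at 900 ppm, applied from acetone. After 48 h at 27° C./85% RH, tubes tapped and negative geotaxis scored; efficacy as percent dead or moribund larvae.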
# [2] = system: adult cat fleas (Ctenocephalides felis); assay: Ctenocephalides felis in-vitro contact test, adult cat flea; conditions: application rate 5 μg/cm^2 (=500 g/ha), after 48 hours, read-out: activity (efficacy: fleas dead or moribund)
# Outline: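 Efficacy, as % of fleas dead or moribund, was read 48 h after 5-10 adult cat fleas were confined in glass tubes whose walls carried dried compound film (900 ppm, […]). Fleas failing to escape upward from a 45-50° C plate within 5 min counted as dead or moribund.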
# [3] = system: adult unfed cat fleas (Ctenocephalides felis); assay: Ctenocephalides felis oral test; conditions: 48 h, read-out: activity (mortality)
# Outline: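 About 20 adult unfed fleas fed through parafilm on cattle blood containing compound (DMSO stock diluted in blood), blood held at 37 °C and fleas at room temperature. Mortality (%) scored after 2 days.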
# [4] = system: larvae of the banded cucumber beetle (Diabrotica balteata); assay: Diabrotica balteata spray test; conditions: 168 h, after 7 days, read-out: activity (efficacy: seedlings grown); for pest or weed control at 100 g/ha: application rate 100 g/ha (=32 pg/well); for pest or weed control at 500 g/ha: application rate 500 g/ha (=160 pg/well)
# Outline: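 Read-out is % efficacy at day 7, 0% meaning no seedling growth and 100% growth equal to uninfested untreated controls. Test solutions (acetone/DMF concentrate diluted with water carrying 1000 ppm emulsifier) were sprayed onto 1-day-germinated wheat seeds, 5 per well, before infestation with 10-20 larvae.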
# [5] = system: green peach aphid (Myzus persicae); assay: Myzus persicae spray test; conditions: 120 h, after 5 days; for mortality at 100 g/ha: application rate 100 g/ha; for mortality at 500 g/ha: application rate 500 g/ha
# Outline: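 Chinese cabbage leaf disks carrying all instars of M. persicae sprayed with compound in acetone/DMF, diluted in water with 1000 ppm alkylarylpolyglycol ether emulsifier. Percent mortality scored after 5 days (100% = all aphids killed).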
# [6] = system: larvae of the southern green stink bug (Nezara viridula); assay: Nezara viridula spray test; conditions: 96 h, after 4 days; for mortality at 100 g/ha: application rate 100 g/ha; for mortality at 500 g/ha: application rate 500 g/ha
# Outline: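 Larva-infested barley (Hordeum vulgare) plants received a spray of test solution prepared from an acetone/DMF concentrate diluted in emulsifier-containing water (1000 ppm). Percent kill read 4 days later; 0% means no stink bugs dead.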
# [7] = system: fall armyworm larvae (Spodoptera frugiperda); assay: Spodoptera frugiperda spray test; conditions: 168 h, read-out: activity (mortality)
# Outline: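 Larvae of fall armyworm placed on dried maize leaf sections previously sprayed with emulsified compound (acetone/DMF solvent, water with 1000 ppm emulsifier). Percent of caterpillars killed recorded on day 7, 0–100% scale.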
# [8] = system: Aedes aegypti strain MONHEIM; assay: Aedes aegypti test (AEDSAE surface treatment & contact assay); conditions: 24 hours after contact, read-out: efficacy (mortality); for mortality at 4 mg/m2: surface concentration 4 mg/m^2, exposure 30 minutes; for mortality at 20 mg/m2: surface concentration 20 mg/m^2, exposure 30 minutes
# Outline: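 Percent mortality was read 24 h after adult MONHEIM mosquitoes were held for 30 min on a tile treated with compound. Compound applied from acetone solution (2 mg/ml) containing 2000 ppm rapeseed oil methyl ester, after evaporation.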
structure (smiles),measurement,setting,value
Cc1nc([C@H](C)NC(=O)c2cc(C(F)(F)F)cc(C3(C#N)CC3)c2)n(-c2ccc(C#N)cn2)n1 [II-49],pest or weed control at 100 g/ha,[1],100%
same,pest or weed control at 500 g/ha,[1],100%
same,pest or weed control at 5 µg/cm2,[2],100%
same,mortality at 100 ppm,[3],100%
same,pest or weed control at 100 g/ha,[4],100%
same,mortality at 100 g/ha,[5],100%
same,mortality at 100 g/ha,[6],100%
same,mortality at 100 g/ha,[7],100%
same,mortality at 4 mg/m2,[8],80 to 100%
same,mortality at 20 mg/m2,[8],80 to 100%
C[C@H](NC(=O)c1cc(OC(F)(F)F)cc(C2CC2)c1)c1ncnn1-c1ccccn1 [II-22],pest or weed control at 100 g/ha,[1],100%
same,pest or weed control at 500 g/ha,[1],100%
same,pest or weed control at 5 µg/cm2,[2],100%
same,mortality at 100 ppm,[3],100%
same,pest or weed control at 100 g/ha,[4],100%
same,pest or weed control at 500 g/ha,[4],100%
same,mortality at 500 g/ha,[5],90%
same,mortality at 500 g/ha,[6],100%
same,mortality at 100 g/ha,[7],100%
same,mortality at 500 g/ha,[7],100%
same,mortality at 4 mg/m2,[8],80 to 100%
same,mortality at 20 mg/m2,[8],80 to 100%
CSc1cc(C#N)cc(C(=O)N[C@@H](C)c2ncnn2-c2ccc(C#N)cn2)c1 [II-3],pest or weed control at 100 g/ha,[1],90%
same,pest or weed control at 500 g/ha,[1],90%
same,pest or weed control at 5 µg/cm2,[2],100%
same,mortality at 100 ppm,[3],100%
same,pest or weed control at 100 g/ha,[4],100%
same,pest or weed control at 500 g/ha,[4],100%
same,mortality at 100 g/ha,[5],100%
same,mortality at 500 g/ha,[5],100%
same,mortality at 100 g/ha,[6],100%
same,mortality at 500 g/ha,[6],100%
same,mortality at 500 g/ha,[7],100%
same,mortality at 4 mg/m2,[8],80 to 100%
same,mortality at 20 mg/m2,[8],80 to 100%
Cc1nc([C@H](C)NC(=O)c2cc(C(F)(F)F)cc(C3(C#N)CC3)c2)n(-c2ccc(Cl)cn2)n1 [II-50],pest or weed control at 100 g/ha,[1],100%
same,pest or weed control at 500 g/ha,[1],100%
same,pest or weed control at 5 µg/cm2,[2],100%
same,mortality at 100 ppm,[3],100%
same,pest or weed control at 100 g/ha,[4],100%
same,mortality at 100 g/ha,[5],100%
same,mortality at 100 g/ha,[6],100%
same,mortality at 100 g/ha,[7],100%
same,mortality at 4 mg/m2,[8],80 to 100%
same,mortality at 20 mg/m2,[8],80 to 100%
C[C@H](NC(=O)c1cc(C2CC2)cc(C(F)(F)F)c1)c1ncnn1-c1ccc(C#N)cn1 [II-26],pest or weed control at 100 g/ha,[1],100%
same,pest or weed control at 500 g/ha,[1],100%
same,pest or weed control at 5 µg/cm2,[2],90%
same,pest or weed control at 100 g/ha,[4],100%
same,pest or weed control at 500 g/ha,[4],100%
same,mortality at 100 g/ha,[5],90%
same,mortality at 500 g/ha,[5],100%
same,mortality at 100 g/ha,[6],100%
same,mortality at 500 g/ha,[6],100%
same,mortality at 100 g/ha,[7],100%
same,mortality at 500 g/ha,[7],100%
same,mortality at 4 mg/m2,[8],80 to 100%
same,mortality at 20 mg/m2,[8],80 to 100%
Cc1nc([C@H](C)NC(=O)c2cc(Cl)cc(S(=O)(=O)C(F)F)c2)n(-c2ccc(C#N)cn2)n1 [II-35],pest or weed control at 100 g/ha,[1],100%
same,pest or weed control at 500 g/ha,[1],100%
same,pest or weed control at 5 µg/cm2,[2],100%
same,mortality at 100 ppm,[3],100%
same,pest or weed control at 100 g/ha,[4],100%
same,pest or weed control at 500 g/ha,[4],100%
same,mortality at 100 g/ha,[5],100%
same,mortality at 500 g/ha,[5],100%
same,mortality at 100 g/ha,[6],100%
same,mortality at 500 g/ha,[6],100%
same,mortality at 4 mg/m2,[8],80 to 100%
same,mortality at 20 mg/m2,[8],80 to 100%
C[C@H](NC(=O)c1cc(C#N)cc([S+](C)[O-])c1)c1ncnn1-c1ccc(C#N)cn1 (stereo partly shown) [II-12],pest or weed control at 100 g/ha,[1],80%
same,pest or weed control at 500 g/ha,[1],100%
same,pest or weed control at 5 µg/cm2,[2],100%
same,pest or weed control at 100 g/ha,[4],100%
same,pest or weed control at 500 g/ha,[4],100%
same,mortality at 100 g/ha,[5],90%
same,mortality at 500 g/ha,[5],90%
same,mortality at 100 g/ha,[6],100%
same,mortality at 500 g/ha,[6],100%
same,mortality at 500 g/ha,[7],100%
same,mortality at 4 mg/m2,[8],80 to 100%
same,mortality at 20 mg/m2,[8],80 to 100%
C[C@H](NC(=O)c1cc(Cl)cc(S(C)(=O)=O)c1)c1ncnn1-c1ncc(OC(F)F)cn1 [II-42],pest or weed control at 100 g/ha,[1],100%
same,pest or weed control at 500 g/ha,[1],100%
same,pest or weed control at 5 µg/cm2,[2],100%
same,mortality at 100 ppm,[3],100%
same,pest or weed control at 100 g/ha,[4],80%
same,mortality at 100 g/ha,[5],90%
same,mortality at 100 g/ha,[6],100%
same,mortality at 4 mg/m2,[8],80 to 100%
same,mortality at 20 mg/m2,[8],80 to 100%
C[C@H](NC(=O)c1cc(OC(F)(F)F)cc(C2CC2)c1)c1ncnn1-c1ccc(Cl)cn1 [II-23],pest or weed control at 100 g/ha,[1],100%
same,pest or weed control at 500 g/ha,[1],100%
same,pest or weed control at 5 µg/cm2,[2],100%
same,pest or weed control at 100 g/ha,[4],100%
same,pest or weed control at 500 g/ha,[4],100%
same,mortality at 100 g/ha,[5],100%
same,mortality at 500 g/ha,[5],100%
same,mortality at 100 g/ha,[6],100%
same,mortality at 500 g/ha,[6],100%
same,mortality at 100 g/ha,[7],100%
same,mortality at 500 g/ha,[7],100%
same,mortality at 4 mg/m2,[8],80 to 100%
same,mortality at 20 mg/m2,[8],80 to 100%
Cc1nc([C@H](C)NC(=O)c2cc(Cl)cc(C3(C#N)CC3)c2)n(-c2ccc(C#N)cn2)n1 [II-38],pest or weed control at 100 g/ha,[1],100%
same,pest or weed control at 500 g/ha,[1],100%
same,pest or weed control at 5 µg/cm2,[2],100%
same,mortality at 100 ppm,[3],100%
same,pest or weed control at 100 g/ha,[4],100%
same,mortality at 100 g/ha,[5],90%
same,mortality at 100 g/ha,[7],100%
same,mortality at 4 mg/m2,[8],80 to 100%
CC(C)c1nc([C@H](C)NC(=O)c2cc(OC(F)(F)F)cc(C3CC3)c2)n(-c2ccc(C#N)cn2)n1 [I-23],pest or weed control at 100 g/ha,[1],100%
same,pest or weed control at 500 g/ha,[1],100%
same,pest or weed control at 5 µg/cm2,[2],100%
same,mortality at 100 ppm,[3],100%
same,pest or weed control at 100 g/ha,[4],80%
same,mortality at 100 g/ha,[5],90%
same,mortality at 100 g/ha,[7],100%
same,mortality at 4 mg/m2,[8],80 to 100%
same,mortality at 20 mg/m2,[8],80 to 100%
CC(NC(=O)c1cc(C(F)(F)F)cc(S(C)(=O)=O)c1)c1nc(Cl)nn1-c1ncccn1 (stereo not shown) [I-30],pest or weed control at 100 g/ha,[1],100%
same,pest or weed control at 500 g/ha,[1],100%
same,pest or weed control at 5 µg/cm2,[2],100%
same,mortality at 100 ppm,[3],100%
same,pest or weed control at 100 g/ha,[4],100%
same,mortality at 100 g/ha,[5],90%
same,mortality at 100 g/ha,[6],100%
same,mortality at 4 mg/m2,[8],80 to 100%
same,mortality at 20 mg/m2,[8],80 to 100%
